Target: T1, SS-bgly (β-glycosidase from Sulfolobus solfataricus) (Saccharolobus solfataricus, UniProt P22498)
T1 construct: gene lacS; full-length gene from genomic DNA in pET-24a, NdeI/BamHI, own stop codon, no tag; E. coli ER2566; heat-treated soluble enzyme (75°C)
T1 sequence (P22498 1-489): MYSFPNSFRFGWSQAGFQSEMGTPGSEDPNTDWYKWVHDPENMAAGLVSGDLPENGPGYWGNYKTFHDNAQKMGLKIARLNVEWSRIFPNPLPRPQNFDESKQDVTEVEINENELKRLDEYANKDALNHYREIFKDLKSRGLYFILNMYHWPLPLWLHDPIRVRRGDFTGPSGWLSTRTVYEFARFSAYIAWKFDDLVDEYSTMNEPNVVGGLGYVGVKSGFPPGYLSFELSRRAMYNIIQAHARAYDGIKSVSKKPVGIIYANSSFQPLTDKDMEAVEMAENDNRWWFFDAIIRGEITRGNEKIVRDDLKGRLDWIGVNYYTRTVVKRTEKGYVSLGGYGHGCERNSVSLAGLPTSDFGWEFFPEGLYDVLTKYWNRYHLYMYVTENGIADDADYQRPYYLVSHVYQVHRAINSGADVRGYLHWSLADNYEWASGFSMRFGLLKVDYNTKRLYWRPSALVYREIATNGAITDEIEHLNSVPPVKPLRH
Assay: TLC of reaction products
Format: biochemical
Conditions: 80°C, pH 6.0 citrate/phosphate; SS-bgly alone; product C-Mc

## CC(C)=CCC[C@](C)(O[C@@H]1O[C@H](CO[C@@H]2O[C@@H](CO)[C@H](O)[C@H]2O)[C@@H](O)[C@H](O)[C@H]1O)[C@H]1CC[C@]2(C)[C@@H]1[C@H](O)C[C@@H]1[C@@]3(C)CC[C@H](O[C@@H]4O[C@H](CO)[C@@H](O)[C@H](O)[C@H]4O[C@@H]4O[C@H](CO)[C@@H](O)[C@H](O)[C@H]4O)C(C)(C)[C@@H]3CC[C@]12C [Rc, ginsenoside Rc]
  TLC of reaction products: whereas only C-Mc was obtained by SS-bgly alone

From publication PMC4692446, “Compound K Production from Red Ginseng Extract by β-Glycosidase from Sulfolobus solfataricus Supplemented with α-L-Arabinofuranosidase from Caldicellulosiruptor saccharolyticus” (PLoS ONE, 2015)
